Where two headings read alike, the source gives them in different places.
Columns and labels:
[1] = test system: HPA axis; experiment: Mouse hypothalamic-pituitary-adrenal (HPA) activation model; type: in vivo; details: for circulating level of ACTH / circulating level of corticosterone: oral dose, normal mice (FIG. 3)
From the text: Hypothalamic stimulation triggered by a suppressed systemic glucocorticoid leads to the secretion of adrenocorticotrophic hormone (ACTH) by the pituitary gland. ACTH acts on the adrenal gland to stimulate the production of endogenous glucorticoids like cortisol (in man) or corticosterone (in rodents). […] Analogs like Compound 1 may thus have an improved efficacy and safety profile for the treatment of metabolic diseases like diabetes and obesity.
Mouse Hypothalamic-Pituitary-Adrenal (HPA) Activation Model
Non-fasted CD-1 male mice, weighing approximately 25 g, are dosed with vehicle, RU-486 (30-100 mg/kg), or GR antagonist (30-100 mg/kg) at 0800 hr when corticosterone levels are low. Two hours later, mice are euthanized with CO2, bled by cardiac puncture, and plasma analyzed for corticosterone by mass spectroscopy and for adrenocorticotropic hormone (ACTH) levels by ELISA. Brains and plasma are also removed for analysis of GR antagonist levels.

[2] = test system: GR-mediated responses; experiment: Rat prednisolone challenge model (hepatic TAT, hepatic glycogen, blood lymphocytes); type: in vivo; details: for inhibition at 100 mg/kg: Rattus norvegicus, Lymphocyte, po, 100 mpk orally in rats, prednisolone challenge
From the text: The analysis of both in vivo activity and liver selectivity may be accomplished using a single pharmacology study, involving a prednisolone challenge administered to rats.
Systemic glucocorticoid activity leads to an anti-inflammatory response, which is the result of a GR-linked suppression of lymphocytic activity.
Rat Prednisolone Challenge Model for Evaluation of Liver-Targeted Glucocorticoid Receptor Antagonists
Six hours following the prednisolone challenge, rats are euthanized with CO2, and bled via cardiac puncture for evaluation of blood lymphocytes and plasma drug levels. 7 mm liver biopsy punches are harvested for evaluation of tyrosine aminotransferase (TAT), hepatic glycogen and GR antagonist levels. Additional liver tissue, retroperitoneal fat, skeletal muscle, kidney and skin from an ear biopsy are also removed for isolation an evaluation of mRNA.

[3] = biological target: T1, progesterone receptor (PR) (Homo sapiens, UniProt P06401); experiment: Radioligand binding assay for progesterone receptor (similar protocol); details: similar protocol to GR binding
T1 sequence (P06401 1-933): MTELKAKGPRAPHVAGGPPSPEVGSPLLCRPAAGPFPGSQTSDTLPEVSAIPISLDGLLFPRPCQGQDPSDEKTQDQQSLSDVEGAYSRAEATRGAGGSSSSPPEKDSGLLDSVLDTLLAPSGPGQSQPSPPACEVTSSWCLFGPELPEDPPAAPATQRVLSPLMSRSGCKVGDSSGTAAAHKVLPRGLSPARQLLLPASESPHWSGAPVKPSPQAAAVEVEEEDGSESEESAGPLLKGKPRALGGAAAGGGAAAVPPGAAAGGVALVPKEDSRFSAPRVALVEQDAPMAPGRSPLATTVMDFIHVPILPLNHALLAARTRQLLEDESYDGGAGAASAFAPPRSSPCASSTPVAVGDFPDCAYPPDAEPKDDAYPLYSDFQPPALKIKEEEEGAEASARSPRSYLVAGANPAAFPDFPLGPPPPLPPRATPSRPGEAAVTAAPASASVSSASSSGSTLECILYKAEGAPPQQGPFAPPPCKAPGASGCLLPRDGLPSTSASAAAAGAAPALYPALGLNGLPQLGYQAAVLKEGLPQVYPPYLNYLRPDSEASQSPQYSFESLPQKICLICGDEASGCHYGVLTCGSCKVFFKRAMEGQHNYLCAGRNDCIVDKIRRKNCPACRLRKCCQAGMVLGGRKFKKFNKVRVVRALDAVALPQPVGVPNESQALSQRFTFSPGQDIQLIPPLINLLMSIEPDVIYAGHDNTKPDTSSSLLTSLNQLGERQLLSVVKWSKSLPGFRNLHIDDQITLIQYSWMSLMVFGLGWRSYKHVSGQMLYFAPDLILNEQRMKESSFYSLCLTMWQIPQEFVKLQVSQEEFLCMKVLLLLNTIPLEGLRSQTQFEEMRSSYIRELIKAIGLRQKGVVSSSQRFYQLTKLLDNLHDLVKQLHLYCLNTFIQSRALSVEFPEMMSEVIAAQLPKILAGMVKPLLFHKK
From the text: Methods for Radioligand Binding Studies with Human Glucocorticoid and Progesterone Receptor Cytosol A similar protocol was employed to measure affinity of the compounds of the present invention for progesterone receptor (PR).

[4] = biological target: T2, Human glucocorticoid receptors (hGR) (Homo sapiens, UniProt P04150); experiment: Radioligand filter binding assay, displacement of 3(H)-dexamethasone from human glucocorticoid receptor
T2 construct: made in house; host or cells: Sf9 insect cells, baculovirus (BAC-TO-BAC)
T2 sequence (P04150 1-777): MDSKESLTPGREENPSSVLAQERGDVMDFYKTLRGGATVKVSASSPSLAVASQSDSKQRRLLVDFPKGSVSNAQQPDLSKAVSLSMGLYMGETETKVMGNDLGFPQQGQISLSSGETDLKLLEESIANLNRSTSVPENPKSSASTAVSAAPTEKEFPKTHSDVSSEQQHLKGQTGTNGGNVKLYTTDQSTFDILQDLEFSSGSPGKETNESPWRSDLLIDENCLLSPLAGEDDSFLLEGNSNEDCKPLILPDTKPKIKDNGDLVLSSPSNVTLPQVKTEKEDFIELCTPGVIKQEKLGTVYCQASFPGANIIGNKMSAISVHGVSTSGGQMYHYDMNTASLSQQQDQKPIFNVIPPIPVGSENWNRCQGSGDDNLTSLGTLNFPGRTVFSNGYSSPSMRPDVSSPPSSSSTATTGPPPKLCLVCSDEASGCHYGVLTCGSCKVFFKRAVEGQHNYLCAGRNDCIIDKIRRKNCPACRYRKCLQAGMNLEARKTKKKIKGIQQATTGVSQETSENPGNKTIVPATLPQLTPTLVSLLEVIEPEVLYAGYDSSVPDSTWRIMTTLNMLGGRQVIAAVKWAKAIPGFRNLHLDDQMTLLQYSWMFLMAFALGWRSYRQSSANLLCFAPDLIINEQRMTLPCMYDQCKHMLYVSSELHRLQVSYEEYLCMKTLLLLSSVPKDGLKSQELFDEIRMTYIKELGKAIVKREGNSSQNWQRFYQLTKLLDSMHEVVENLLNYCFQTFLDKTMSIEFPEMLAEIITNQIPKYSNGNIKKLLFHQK
From the text: Methods for Radioligand Binding Studies with Human Glucocorticoid and Progesterone Receptor Cytosol
Dexamethasone hereafter referred to as dex was purchased from SIGMA. […] Human glucocorticoid receptors were extracted from Sf9 cells infected with a recombinant baculovirus transfer vector containing the cloned hGR genes. Recombinant baculovirus was generated utilizing the BAC-TO-BAC expression system (Life Technologies) in accordance to instruction from the supplier. The hGR coding sequences were cloned into a baculovirus transfer vector by standard techniques. The recombinant baculoviruses expressing hGR were amplified and used to infect Sf9 cells. Infected cells were harvested 48 hrs post infection. […] The concentration of hGR in the extract was measured as specific ^3(H)-dex binding with the G25-assay as described in J. Steroid Biochem. Molec. […] The extract was aliquoted and stored at −70° C.
The filter binding assay: Dilution series of the test compounds and dexamethasone as reference were made from 10 mM (1 mM dex) stock solutions in DMSO. 10 μl of the dilutions was added in duplicates to the wells. The cell extracts were diluted 10 fold in EPMo+MTG buffer (1 mM EDTA, HPO4 20 mM (pH8), 6 mM MTG). […] 110μl of the diluted ^3(H)-dex were added to the wells. The final concentration of hGR in the experiment was estimated to 1 nM. All preparations were made in […] on ice and with +4° C. temperated buffers. The plates were incubated overnight at +4° C. (15-20 hrs.).
The incubation was stopped by filtration through GF/B filter on the Tomtec Cellharvester. The filtration on the Tomtec Cellharvester was programmed as follows: 1) Preparation before filtration with EP buffer (1 mM EDTA 20 mM HPO4 (pH8)) 2×(Wash/Asp 0.6 sec., Asp 0.5 sec.); 2) Prewet of GF/B filter with EP+PEI buffer (EP buffer, 0.3% Polyethylenimine) (Asp 0.8 sec.); 3) Filtration/harvesting of the 96-well incubation plate 3×(Wash/Asp 0.6 sec., Asp 0.5 sec.). The GF/B filter was dried for at least 1 hr at 65° C. A MeltiLex scintillation wax was melted onto the filter with the Microsealer. The filter was placed in a samplebag, which was thereafter trimmed with scissors to fit the filter cassette. The cassette were placed in the Microbeta and measured for 1 min/position, returning ccpm (corrected counts per minute).
The Microbeta-instrument generates the mean cpm (counts per minute) value/minute and corrects for individual variations between the detectors thus generating corrected cpm values.

[5] = 100 mpk, CD-1 male mice, two hours after dosing
[6] = 30 mpk orally, rat prednisolone challenge
[7] = read-out: Inhibition of GR-mediated responses: Glycogen
[8] = read-out: Inhibition of GR-mediated responses: Lymphocytes
[9] = read-out: Inhibition of GR-mediated responses: TAT
[10] = rat prednisolone challenge, 100 mpk
[11] = 10 mpk prednisolone, normal rats, 7-hour experiment

| Compound | circulating level of ACTH [1] | circulating level of corticosterone [1] | inhibition at 100 mg/kg [2, 7] [%] | inhibition at 100 mg/kg [2, 8] [%] | inhibition at 100 mg/kg [2, 9] [%] | IC50 [3] [nM] | IC50 [4] [nM] | also measured |
| --- | --- | --- | --- | --- | --- | --- | --- | --- |
| CC#C[C@]1(O)CC[C@H]2[C@@H]3CCC4=CC(=O)CCC4=C3[C@@H](c3ccc(N(C)C)cc3)C[C@@]21C [RU-38486] | increases | increases | 74 | 108 | 100 | – | – | ACTH level compared to vehicle controls [1, 5]: significantly increases; corticosterone level compared to vehicle controls [1, 5]: significantly increases; block of agonist effect on TAT induction [2, 6]: completely blocks; block of lymphopenic response produced by prednisolone [2, 6]: ability to block; suppression of prednisolone-induced deposition of hepatic glycogen [2, 6]: completely suppressed; block of hepatic glucocorticoid responses to prednisolone (TAT, glycogen) [2, 10]: completely antagonizes; effect on systemic (peripheral) glucocorticoid response to prednisolone [2, 10]: completely antagonizes |
| CC#C[C@]1(O)CC[C@H]2[C@@H]3CCC4=CC(=O)CCC4=C3[C@@H](c3ccc(OCCO[C@H]4CC[C@@]5(C)C(C4)C[C@@H](O)[C@H]4[C@@H]6CC[C@H]([C@H](C)CCC(=O)O)[C@@]6(C)[C@@H](O)C[C@@H]45)c(C)c3)C[C@@]21C (stereo partly drawn) [Example 2, (3β,7α,12α)-7,12-dihydroxy-3-(2-(4-(17β-hydroxy-3-oxo-17α-prop-1-ynylestra-4,9-dien-11β-yl)-2-methylphenoxy)ethoxy)cholan-24-oic acid] | – | – | – | – | – | 2.3 | 2.8 | – |
| CC#C[C@]1(O)[C@H](C)C[C@H]2[C@@H]3CCC4=CC(=O)CCC4=C3[C@@H](c3ccc(N(C)CCO[C@H]4CC[C@@]5(C)[C@@H](C4)C[C@@H](O)[C@@H]4[C@@H]5C[C@H](O)[C@]5(C)[C@@H]([C@H](C)CCC(=O)O)CC[C@@H]45)cc3)C[C@@]21C [Example 4, (3β,5β,7α,12α)-7,12-Dihydroxy-3-{2-[{4-[17β-hydroxy-16α-methyl-3-oxo17α-prop-1-ynylestra-4,9-dien-11β-yl]phenyl}(methyl)amino]ethoxy}cholan-24-oic acid] | – | – | – | – | – | 1.6 | – | IC50 ([4]; 3(H)-dex displacement, hGR extract from Sf9 cells, read-out: GR Binding (IC50)): 3.3 nM |
| CC#C[C@]1(O)CC[C@H]2[C@@H]3CCC4=CC(=O)CCC4=C3[C@@H](c3ccc(N(C)CCO[C@H]4CC[C@@]5(C)[C@@H](C4)C[C@@H](O)[C@@H]4[C@@H]5C[C@H](O)[C@]5(C)[C@@H]([C@H](C)CCC(=O)O)CC[C@@H]45)c(F)c3)C[C@@]21C [Example 3, (3β,5β,7α,12α)-7,12-dihydroxy-3-{2-[{4-[17β-hydroxy-3-oxo-17α-prop-1-ynylestra-4,9-dien-11β-yl]-2-fluorophenyl}(methyl)amino]ethoxy}cholan-24-oic acid] | – | – | – | – | – | 4.5 | 2 | – |
| C[C@]12C=CC(=O)C=C1CC[C@@H]1[C@@H]2[C@@H](O)C[C@@]2(C)[C@H]1CC[C@]2(O)C(=O)CO [prednisolone] | – | – | – | – | – | – | – | circulating lymphocyte levels ([2]; 10 mpk prednisolone, normal rats): decrease; increase in the deposition of hepatic glycogen [2, 11]: ~60%; induction of tyrosine aminotransferase (TAT) [2, 11]: 3 fold |
| CC#C[C@]1(O)CC[C@H]2[C@@H]3CCC4=CC(=O)CCC4=C3[C@@H](c3ccc(N(C)CCO[C@H]4CC[C@@]5(C)[C@@H](C4)C[C@@H](O)[C@@H]4[C@@H]5C[C@H](O)[C@]5(C)[C@@H]([C@H](C)CCC(=O)O)CC[C@@H]45)cc3)C[C@@]21C [Example 1, (3β,5β,7α,12α)-7,12-Dihydroxy-3-{2-[{4-[17β-hydroxy-3-oxo-17α-prop-1-ynylestra-4,9-dien-11β-yl]phenyl}(methyl)amino]ethoxy}cholan-24-oic acid] | lack of change | lack of change | 111 | 35 | 85 | 8.7 | 3.6 | stimulation of the HPA axis ([1]; mice, dose similar to RU-38486 (FIG. 3)): fails to stimulate; selectivity for hepatic GR vs. systemic effects ([2]; rat prednisolone challenge, doses as in Table I): liver-selective pharmacology |
